{"source": "patent US6495491B1", "about": "“Substituted cyanophenyl uracils” (Bayer Aktiengesellschaft, priority 1995, dated 2002)", "type_in_all_cases": "in vivo", "key": {"Matricaria [1]": {"tested_on": "Matricaria", "test": "Pre-emergence test, Matricaria", "details": "application rates between 8 and 125 g/ha, after three weeks", "description": "(§1) Solvent: 5 parts by weight of acetone\n(§2) Emulsifier: 1 part by weight of alkylaryl polyglycol ether\n(§3) To produce a suitable preparation of active compound, 1 part by weight of active compound is mixed with the stated amount of solvent, the stated amount of emulsifier is added and the concentrate is diluted with water to the desired concentration.\n(§4) Seeds of the test plants are sown in normal soil. After 24 hours, the soil is watered or sprayed with the preparation of the active compound. It is advantageous to keep the amount of water per unit area constant. The concentration of the active compound in the preparation is immaterial, only the amount of active compound applied per unit area matters.\n(§5) After three weeks, the degree of damage to the plants is rated in % damage by comparison with the development of the untreated control.\n(§6) 0%=no effect (like untreated control)"}, "wheat": {"tested_on": "wheat", "test": "Pre-emergence test, crop tolerance wheat", "details": "application rates between 8 and 125 g/ha, after three weeks", "description": "as §1, §2, §3, §4, §5, §6"}, "Matricaria [2]": {"tested_on": "Matricaria", "test": "Post-emergence test, Matricaria", "details": "application rates between 30 and 500 g/ha, after three weeks", "description": "as §1, §2, §3\n(§7) Test plants which have a height of 5-15 cm are sprayed with the preparation of the active compound in such a way as to apply the particular amounts of active compound desired per unit area. The concentration of the spray liquor is chosen so that the particular desired amounts of active compound are applied in 2000 l of water/ha.\nas §5, §6"}, "Chenopodium [3]": {"tested_on": "Chenopodium", "test": "Pre-emergence test, Chenopodium", "details": "application rates between 8 and 125 g/ha, after three weeks", "description": "as §1, §2, §3, §4, §5, §6"}, "Abutilon [4]": {"tested_on": "Abutilon", "test": "Post-emergence test, Abutilon", "details": "application rates between 30 and 500 g/ha, after three weeks", "description": "as §1, §2, §3, §7, §5, §6"}, "Chenopodium [5]": {"tested_on": "Chenopodium", "test": "Post-emergence test, Chenopodium", "details": "application rates between 30 and 500 g/ha, after three weeks", "description": "as §1, §2, §3, §7, §5, §6"}, "Abutilon [6]": {"tested_on": "Abutilon", "test": "Pre-emergence test, Abutilon", "details": "application rates between 8 and 125 g/ha, after three weeks", "description": "as §1, §2, §3, §4, §5, §6"}}, "data": [{"compound": "COc1cc(-n2c(=O)cc(C(F)(F)F)n(C)c2=O)c(F)cc1C#N", "note": "[Example 2, 1-(4-cyano-2-fluoro-5-methoxy-phenyl)-3,6-dihydro-2,6-dioxo-3-methyl-4-trifluoromethyl-1(2H)-pyrimidine]", "values": [{"measurement": "degree of damage to the plants, % damage", "setting": "Matricaria [1]", "value": 100, "unit": "%/o"}, {"measurement": "degree of damage to the plants, % damage (tolerance by crops)", "setting": "wheat", "value": 0, "unit": "%"}, {"measurement": "degree of damage to the plants, % damage", "setting": "Matricaria [2]", "value": 100, "unit": "%"}, {"measurement": "degree of damage to the plants, % damage", "setting": "Chenopodium [3]", "value": 100, "unit": "%/o"}, {"measurement": "degree of damage to the plants, % damage", "setting": "Abutilon [4]", "value": 100, "unit": "%"}, {"measurement": "degree of damage to the plants, % damage", "setting": "Chenopodium [5]", "value": 100, "unit": "%"}, {"measurement": "degree of damage to the plants, % damage", "setting": "Abutilon [6]", "value": 100, "unit": "%"}]}]}
